Tests used:
[1] = Particle size and polydispersity index (PDI) of nanolipid particles, dynamic light scattering; assay type: physicochemical; conditions: LNP formulation prepared from the named cationic lipid, 25° C
Protocol: The particle size and polydispersity index (PDI) were determined by dynamic light scattering method using a Malvern laser particle size analyzer. 10 μL of liposome solution was diluted to 1 mL with RNase-free deionized water and added to a sample pool. Each sample was measured three times. The measurement conditions were: 90° scattering angle, 25° C.

[2] = Encapsulation rate, drug loading concentration and total RNA concentration detection (RiboGreen); assay type: physicochemical; conditions: for Drug loading concentration / Encapsulation rate / Total RNA concentration: LNP formulation of the named lipid
293T cells [3] = test: Fluorescence detection of Fluc-mRNA (cell transfection efficiency of LNP formulations); assay type: cell-based; conditions: for Relative light unit (RLU): LNP containing 0.3 μg Fluc-mRNA, 24 hours; for Multiples of values that equivalent to YK-201: RLU of YK-201 / RLU of the named lipid; for Multiples of values that equivalent to YK-202: RLU of YK-202 / RLU of the named lipid; for Multiples of values that equivalent to YK-209: RLU of YK-209 / RLU of the named lipid; for Ratio relative to SM-102: RLU of the named lipid / RLU of SM-102, times that of SM-102
Method in brief: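 293T cells at 10,000 per well, adhered overnight, then given LNPs carrying 0.3 μg Fluc-mRNA (cationic:neutral:structured:polymer-conjugated lipid 49:10:39.5:1.5 molar). After 24 h, luciferase signal read with luciferase kit reagents on an IVIS imaging system as transfection efficiency.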

293T cells [4] = test: Cell survival rate assay (CCK-8); assay type: cell-based; conditions: for Cell survival rate: LNP containing 1.5 μg Fluc-mRNA, 24 hours, CCK-8
Method in brief: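 293T cells seeded at 10,000 per well and grown overnight, then exposed for 24 h to LNPs (cationic/neutral/structured/PEG lipids 49:10:39.5:1.5) carrying 1.5 μg Fluc-mRNA, or Lipofectamine 3000. Viability read by CCK-8, 1 h incubation, absorbance at 450 nm.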

female BALB/C mice = test: Mouse in vivo imaging of Fluc-mRNA LNP formulations; set-up: average radiation intensity (mRNA expression): unit not given here; conditions: for average radiation intensity (mRNA expression): 10 μg Fluc-mRNA LNP intramuscularly
Protocol: The LNP formulation containing 10 μg Fluc-mRNA (prepared according to Example 4) was injected intramuscularly into female BALB/C mice aged 4 to 6 weeks and weighing 17 to 19 g, and the mice were intraperitoneally injected with fluorescent imaging substrates at specific time points (6 h, 24 h, 48 h and 7 d) after administration. The mice moved freely for 5 minutes, and then the average radiation intensity (corresponding to the fluorescence expression intensity) of the protein expressed by the mRNA carried by the LNP in the mice was detected by IVIS Spectrum small animal in vivo imager. The test results are shown in Tables 14 to 17 and FIGS. 12 to 14.

CCCCCCCCCCCOC(=O)CCCCCN(CCCCCCCC(=O)OC(CCCCCCC)CCCCCCC)CCN(C)CCO [YK-206]
PDI [1]: 18.8% | Particle size [1]: 216 nm | drug loading concentration, times that of ALC-0315 [2]: 1.46 times | drug loading concentration, times that of HHMA [2]: 1.24 times | drug loading concentration, times that of SM-102 [2]: 1.50 times | drug loading concentration, times that of YK-009 [2]: 1.42 times | drug loading concentration, times that of compound 21 [2]: 1.69 times | drug loading concentration, times that of compound 23 [2]: 1.84 times | total RNA concentration, times that of ALC-0315 [2]: 1.12 times | total RNA concentration, times that of HHMA [2]: 1.10 times | total RNA concentration, times that of SM-102 [2]: 1.18 times | total RNA concentration, times that of YK-009 [2]: 1.08 times | total RNA concentration, times that of compound 21 [2]: 1.36 times | total RNA concentration, times that of compound 23 [2]: 1.28 times | Drug loading concentration [2]: 38.09 µg/mL | Encapsulation rate [2]: 91.4% | Total RNA concentration [2]: 41.69 µg/mL | encapsulation rate higher than that of ALC-0315 ([2]; difference of rates): 28.60% | encapsulation rate higher than that of HHMA ([2]; difference of rates): 30.90% | encapsulation rate higher than that of SM-102 ([2]; difference of rates): 29.10% | encapsulation rate higher than that of YK-009 ([2]; difference of rates): 28.40% | encapsulation rate higher than that of compound 21 ([2]; difference of rates): 33.60% | encapsulation rate higher than that of compound 23 ([2]; difference of rates): 36.20% | RLU / cell transfection efficiency, times that of ALC-0315 (293T cells [3]; Fluc-mRNA LNP): 9 times | RLU / cell transfection efficiency, times that of HHMA (293T cells [3]; Fluc-mRNA LNP): 10 times | RLU / cell transfection efficiency, times that of Lipofectamine 3000 (293T cells [3]; Fluc-mRNA LNP): 17 times | RLU / cell transfection efficiency, times that of YK-009 (293T cells [3]; Fluc-mRNA LNP): 4 times | RLU / cell transfection efficiency, times that of compound 21 (293T cells [3]; Fluc-mRNA LNP): 14 times | RLU / cell transfection efficiency, times that of compound 23 (293T cells [3]; Fluc-mRNA LNP): 15 times | fluorescence absorption value / cell transfection efficiency, times that of YK-205 (293T cells [3]; Fluc-mRNA LNP): 20.29 times | Relative light unit (RLU) (293T cells [3]): 21058746 RLU | Multiples of values that equivalent to YK-201 (293T cells [3]): 1.35 | Multiples of values that equivalent to YK-202 (293T cells [3]): 1.42 | Multiples of values that equivalent to YK-209 (293T cells [3]): 1.28 | Cell survival rate (293T cells [4]): 74.57% | cell survival rate higher than that of ALC-0315 (293T cells [4]; difference of rates): 24.61% | cell survival rate higher than that of HHMA (293T cells [4]; difference of rates): 9.01% | cell survival rate higher than that of Lipofectamine 3000 (293T cells [4]; difference of rates): 51.52% | cell survival rate higher than that of SM-102 (293T cells [4]; difference of rates): 6.02% | cell survival rate higher than that of compound 21 (293T cells [4]; difference of rates): 5.55% | cell survival rate higher than that of compound 23 (293T cells [4]; difference of rates): 4.47% | average radiation intensity (mRNA expression) (female BALB/C mice; 6 h): 2068900 | average radiation intensity (mRNA expression) (female BALB/C mice; 24 h): 1553050 | average radiation intensity (mRNA expression) (female BALB/C mice; 48 h): 500150 | average radiation intensity (mRNA expression) (female BALB/C mice; 7 d): 23015 | mRNA expression level in mice can reach, times that of ALC-0315 (female BALB/C mice; time point not stated): 13 times | mRNA expression level in mice can reach, times that of HHMA (female BALB/C mice; time point not stated): 16 times | mRNA expression level in mice can reach, times that of SM-102 (female BALB/C mice; time point not stated): 16 times | mRNA expression level in mice can reach, times that of compound 21 (female BALB/C mice; time point not stated): 16 times | mRNA expression level in mice can reach, times that of compound 23 (female BALB/C mice; time point not stated): 16 times

CCCCCCC(CCCCCC)CCOC(=O)CCCCCCCN(CCO)CCCCCCCC(=O)OCCC(CCCCCC)CCCCCC [Compound 23, bis(3-hexylnonyl)8,8′-((2-hydroxyethyl)azadialkyl)dioctanoate, reference compound]
PDI [1]: 8.6% | Particle size [1]: 138 nm | Drug loading concentration [2]: 20.7 µg/mL | Encapsulation rate [2]: 55.2% | Total RNA concentration [2]: 32.51 µg/mL | Relative light unit (RLU) (293T cells [3]): 1332014 RLU | Multiples of values that equivalent to YK-201 (293T cells [3]): 21.38 | Multiples of values that equivalent to YK-202 (293T cells [3]): 22.49 | Ratio relative to SM-102 (293T cells [3]): 0.80 | Cell survival rate (293T cells [4]): 70.10% | average radiation intensity (mRNA expression) (female BALB/C mice; 6 h): 594050 | average radiation intensity (mRNA expression) (female BALB/C mice; 24 h): 110870 | average radiation intensity (mRNA expression) (female BALB/C mice; 48 h): 32074 | average radiation intensity (mRNA expression) (female BALB/C mice; 7 d): 5827

CCCCCCCCC(CCCCCCCC)COC(=O)CCCCCN(CCCCCC(=O)OCC(CCCCCCCC)CCCCCCCC)CCN(C)CCNC [YK-223]
PDI [1]: 25.8% | Particle size [1]: 211 nm | Drug loading concentration [2]: 37.51 µg/mL | Encapsulation rate [2]: 98.3% | Total RNA concentration [2]: 38.16 µg/mL | Relative light unit (RLU) (293T cells [3]): 75012 RLU | Multiples of values that equivalent to YK-201 (293T cells [3]): 379.71 | Multiples of values that equivalent to YK-202 (293T cells [3]): 399.37 | Multiples of values that equivalent to YK-209 (293T cells [3]): 280.74 | Ratio relative to SM-102 (293T cells [3]): 0.05 | Cell survival rate (293T cells [4]): 36.64% | average radiation intensity (mRNA expression) (female BALB/C mice; 6 h): 10355 | average radiation intensity (mRNA expression) (female BALB/C mice; 24 h): 1786 | average radiation intensity (mRNA expression) (female BALB/C mice; 48 h): 678 | average radiation intensity (mRNA expression) (female BALB/C mice; 7 d): 440

CCCCCCCCCCCOC(=O)CCCCCN(CCCCCCCC(=O)OC(CCCCCCCC)CCCCCCCC)CCN(C)CCOC [YK-215]
PDI [1]: 20.8% | Particle size [1]: 219 nm | Drug loading concentration [2]: 29.30 µg/mL | Encapsulation rate [2]: 68.0% | Total RNA concentration [2]: 43.13 µg/mL | Relative light unit (RLU) (293T cells [3]): 981165 RLU | Multiples of values that equivalent to YK-201 (293T cells [3]): 29.03 | Multiples of values that equivalent to YK-202 (293T cells [3]): 30.53 | Multiples of values that equivalent to YK-209 (293T cells [3]): 21.46 | Ratio relative to SM-102 (293T cells [3]): 0.59 | Cell survival rate (293T cells [4]): 44.59% | average radiation intensity (mRNA expression) (female BALB/C mice; 6 h): 50564 | average radiation intensity (mRNA expression) (female BALB/C mice; 24 h): 6815 | average radiation intensity (mRNA expression) (female BALB/C mice; 48 h): 3640 | average radiation intensity (mRNA expression) (female BALB/C mice; 7 d): 1020
